Laboratory results as given in ChEMBL document CHEMBL1201862, “PubChem BioAssay data set” (2004).
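Briefly, cells in 96-well plates were exposed to five compound concentrations for 48 h, and endpoints were estimated by linear interpolation. GI50 marks 50% less growth.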 Active and inactive are the calls of the source. No stated cut-off is given here; in the data, active = GI50 up to about 1.1 µM and inactive = higher.

Key:
Assay in all cases: NCI-60 cell line screen, 48 h
LOX IMVI = system: LOX IMVI
U-251 = system: U-251
OVCAR-8 = system: OVCAR-8
K562 = system: K562
T47D = system: T47D
SF-539 = system: SF-539
TK-10 = system: TK-10
NCI-H23 = system: NCI-H23
CAKI-1 = system: CAKI-1
SK-MEL-5 = system: SK-MEL-5
IGROV-1 = system: IGROV-1
MCF7 = system: MCF7
SK-MEL-2 = system: SK-MEL-2
SNB-19 = system: SNB-19
HT-29 = system: HT-29
NCI/ADR-RES = system: NCI/ADR-RES
NCI-H460 = system: NCI-H460
EKVX = system: EKVX
UO-31 = system: UO-31
MDA-N = system: MDA-N

Measured: GI50

COC1=CC23CCCN2CCc2cc4c(cc2C3C1O)OCO4 (stereo not given)
inactive: LOX IMVI 37.1 µM | U-251 > 100 µM | OVCAR-8 > 100 µM | K562 > 10 µM | T47D 92.5 µM | SF-539 40.6 µM | TK-10 > 100 µM | NCI-H23 62.8 µM | CAKI-1 31.4 µM | SK-MEL-5 20 µM | IGROV-1 28.8 µM | MCF7 48.5 µM | SK-MEL-2 54.2 µM | SNB-19 20.3 µM | HT-29 39.4 µM | NCI/ADR-RES > 100 µM | NCI-H460 36 µM | EKVX 52.5 µM | UO-31 48 µM

CCN(CC)CCn1ncc2c(N)ncnc21
inactive: LOX IMVI > 100 µM | MDA-N > 100 µM | U-251 > 100 µM | OVCAR-8 > 100 µM | K562 > 100 µM | T47D > 100 µM | TK-10 > 100 µM | NCI-H23 > 100 µM | CAKI-1 > 100 µM | SK-MEL-5 > 100 µM | IGROV-1 > 100 µM | MCF7 > 100 µM | SK-MEL-2 > 100 µM | SNB-19 > 100 µM | HT-29 > 100 µM | NCI/ADR-RES > 100 µM | NCI-H460 > 100 µM | EKVX > 100 µM | UO-31 > 100 µM

Cc1c(C)c(C)c(-n2c(=O)n(C)c(=O)n2C(C)(C)C)c(C)c1C
inactive: LOX IMVI > 100 µM | MDA-N > 100 µM | U-251 > 100 µM | K562 81.1 µM | T47D > 100 µM | SF-539 > 100 µM | TK-10 > 100 µM | NCI-H23 > 100 µM | CAKI-1 > 100 µM | SK-MEL-5 > 100 µM | MCF7 > 100 µM | SK-MEL-2 > 100 µM | SNB-19 > 100 µM | NCI-H460 > 100 µM | UO-31 > 100 µM

COc1cc2c(OC)c(c1)CCCC1=CC(=O)C=C(CCC2)C1=O
inactive: LOX IMVI 16.6 µM | MDA-N 15.2 µM | U-251 40.1 µM | OVCAR-8 20.4 µM | K562 14.6 µM | T47D 23.2 µM | SF-539 35.6 µM | TK-10 > 100 µM | NCI-H23 50.2 µM | CAKI-1 > 100 µM | SK-MEL-5 30.3 µM | IGROV-1 40.8 µM | MCF7 39 µM | SNB-19 29.4 µM | HT-29 44.9 µM | NCI/ADR-RES 32 µM | NCI-H460 41.9 µM | EKVX 41.1 µM | UO-31 43.9 µM

COc1cc(OCc2ccc3nc(OC)c(OC)nc3c2)cc(OC)c1OC
inactive: LOX IMVI > 10 µM | MDA-N > 10 µM | U-251 > 10 µM | OVCAR-8 > 10 µM | K562 > 10 µM | T47D > 10 µM | SF-539 > 10 µM | TK-10 > 10 µM | NCI-H23 > 10 µM | CAKI-1 > 10 µM | SK-MEL-5 > 10 µM | IGROV-1 > 10 µM | MCF7 > 10 µM | SNB-19 > 10 µM | HT-29 > 10 µM | NCI/ADR-RES > 10 µM | NCI-H460 > 10 µM | EKVX > 10 µM | UO-31 > 10 µM

CC(CO)(CO)N1C(=O)C2C3c4ccccc4C(c4ccccc43)C2C1=O (stereo not given)
inactive: MDA-N > 100 µM | U-251 > 100 µM | OVCAR-8 > 100 µM | K562 > 100 µM | T47D > 100 µM | SF-539 > 100 µM | TK-10 > 100 µM | NCI-H23 > 100 µM | CAKI-1 > 100 µM | SK-MEL-5 > 100 µM | IGROV-1 > 100 µM | MCF7 > 100 µM | SK-MEL-2 > 100 µM | SNB-19 > 100 µM | HT-29 > 100 µM | NCI/ADR-RES > 100 µM | NCI-H460 > 100 µM | UO-31 65.2 µM

N#Cc1c(-c2ccc(Cl)cc2Cl)nc2[nH]nc(S)n2c1=O
inactive: LOX IMVI > 100 µM | MDA-N > 100 µM | U-251 > 100 µM | OVCAR-8 > 100 µM | T47D > 100 µM | TK-10 > 100 µM | NCI-H23 > 100 µM | CAKI-1 > 100 µM | SK-MEL-5 > 100 µM | IGROV-1 > 100 µM | MCF7 > 100 µM | SK-MEL-2 > 100 µM | SNB-19 > 100 µM | HT-29 > 100 µM | NCI/ADR-RES > 100 µM | NCI-H460 > 100 µM | EKVX > 100 µM | UO-31 > 100 µM

O=c1[nH]c2cc3cccnc3c(Cl)c2nc1CBr
inactive: LOX IMVI 13.9 µM | MDA-N 15.6 µM | U-251 15.4 µM | OVCAR-8 17.9 µM | K562 12.1 µM | T47D 5.89 µM | SF-539 11.2 µM | TK-10 21.7 µM | NCI-H23 15 µM | CAKI-1 15.1 µM | SK-MEL-5 17.5 µM | IGROV-1 2.92 µM | MCF7 10.1 µM | SNB-19 5.73 µM | HT-29 19.5 µM | NCI/ADR-RES 20 µM | NCI-H460 19 µM | EKVX 16.1 µM | UO-31 10.5 µM

COc1cc(CNc2nc3ccccc3nc2C(=O)O)cc(OC)c1OC
inactive: LOX IMVI > 100 µM | MDA-N > 100 µM | U-251 > 100 µM | OVCAR-8 > 100 µM | K562 > 100 µM | T47D > 100 µM | SF-539 > 100 µM | TK-10 > 100 µM | NCI-H23 > 100 µM | CAKI-1 > 100 µM | SK-MEL-5 98.4 µM | IGROV-1 > 100 µM | MCF7 81.1 µM | HT-29 > 100 µM | NCI/ADR-RES > 100 µM | NCI-H460 94 µM | EKVX 64.1 µM | UO-31 49.2 µM

Cn1c(-c2ccc(/N=N/Nc3ccc(-c4n[nH]c(=S)n4C)cc3)cc2)n[nH]c1=S
inactive: LOX IMVI 16.4 µM | MDA-N > 100 µM | U-251 13.2 µM | OVCAR-8 4.6 µM | K562 2.82 µM | T47D 1.94 µM | TK-10 28.7 µM | NCI-H23 7.8 µM | SK-MEL-5 3.01 µM | IGROV-1 10.2 µM | MCF7 12.1 µM | SK-MEL-2 5.7 µM | SNB-19 17.7 µM | HT-29 > 100 µM | NCI/ADR-RES > 100 µM | EKVX 20.6 µM | UO-31 2.85 µM

Clc1nc(NCCc2ccccc2)c2ncn(-c3ccccc3)c2n1
inactive: LOX IMVI 21.3 µM | MDA-N 18.5 µM | U-251 16.2 µM | OVCAR-8 28.4 µM | K562 25.5 µM | T47D 23.4 µM | TK-10 21.1 µM | NCI-H23 25.6 µM | CAKI-1 7.83 µM | SK-MEL-5 18.5 µM | IGROV-1 40.8 µM | MCF7 24.9 µM | SK-MEL-2 1.83 µM | SNB-19 37 µM | HT-29 16.2 µM | NCI/ADR-RES 20.6 µM | NCI-H460 15.3 µM | EKVX 22.5 µM | UO-31 12.9 µM

N#Cc1nc(CN2C(=O)c3ccccc3C2=O)oc1N
inactive: MDA-N > 100 µM | U-251 > 100 µM | OVCAR-8 > 100 µM | K562 > 100 µM | T47D > 100 µM | SF-539 > 100 µM | TK-10 > 100 µM | CAKI-1 > 100 µM | SK-MEL-5 > 100 µM | IGROV-1 > 100 µM | MCF7 > 100 µM | SK-MEL-2 > 100 µM | HT-29 > 100 µM | NCI/ADR-RES > 100 µM | NCI-H460 > 100 µM

O=c1[nH]nc(Cc2ccccc2)n1/N=C/c1cccs1
inactive: LOX IMVI > 100 µM | MDA-N > 100 µM | U-251 48 µM | OVCAR-8 > 100 µM | K562 > 100 µM | T47D > 100 µM | SF-539 > 100 µM | NCI-H23 > 100 µM | CAKI-1 > 100 µM | MCF7 > 100 µM | SK-MEL-2 > 100 µM | SNB-19 > 100 µM | HT-29 > 100 µM | NCI/ADR-RES > 100 µM | NCI-H460 > 100 µM | EKVX > 100 µM | UO-31 > 100 µM

Cc1cc(N(CCC#N)CCC#N)ccc1C(/N=N/c1ccc(C(=O)O)cc1)=N\NC(=O)c1ccccc1
inactive: MDA-N 4.31 µM | U-251 34.8 µM | OVCAR-8 28.1 µM | K562 12.7 µM | T47D 43.8 µM | SF-539 16.3 µM | TK-10 > 100 µM | NCI-H23 17.7 µM | CAKI-1 > 100 µM | SK-MEL-5 19.5 µM | IGROV-1 50.2 µM | MCF7 22.8 µM | SK-MEL-2 > 100 µM | SNB-19 50.8 µM | HT-29 17.3 µM | NCI/ADR-RES 66.8 µM | NCI-H460 22.9 µM | EKVX > 100 µM | UO-31 42.7 µM

CNn1c(-c2ccc(C)cc2)n[nH]c1=O
inactive: LOX IMVI > 100 µM | U-251 > 100 µM | OVCAR-8 > 100 µM | K562 55.8 µM | T47D > 100 µM | SF-539 > 100 µM | TK-10 > 100 µM | NCI-H23 > 100 µM | CAKI-1 > 100 µM | SK-MEL-5 > 100 µM | IGROV-1 > 100 µM | MCF7 > 100 µM | SK-MEL-2 > 100 µM | SNB-19 > 100 µM | HT-29 > 100 µM | NCI/ADR-RES > 100 µM | NCI-H460 > 100 µM | EKVX > 100 µM | UO-31 > 100 µM
